# Assay results: patent publication US7622551B2, “Leukocyte stimulating peptides” (POSCO, priority 2004, dated 2009)
# Where no end group is shown, it is not given here.
# How the values were obtained:
# [1] = tested on: differentiated HL60 cells; experiment: Arachidonic acid (AA) release in [3H]AA-labeled dHL60 cells; assay type: cell-based, human; conditions: for Inhibition of AA release induced by P14, P18, P21, P24 / AA release stimulating activity (in words): dHL60 cells; for Inhibition of AA release induced by P14, P18, P21, P24: 1 μM peptide, MAFP, AACOCF3, BEL at 10 μM; for Folds of increase (% of total), arachidonic acid release: differentiated HL60 cells, 10 μM of peptide; for AA release stimulating activity (in words): 10 μM
# Experimental: (§1) U937 (human histiocytic lymphoma cells), HL60 (human promyelocytic leukemia cells), Raw 264.7 (mouse macrophage), Jurkat (human acute T cell leukemia), PC12 (rat adrenal pheochromocytoma cells), 3Y1 (Rat embryonic fibroblasts), 3T3L1 (preadipocytes), and NCI-H292 (human mucoepidermoid pulmonary carcinoma cells) were obtained from the American Type Culture Collection (Rockville, Md.) and maintained as recommended. FPR- or FPRL1 expressing RBL-2H3 cells were cultured as described previously (He et al. J. Immunol. 2000. 165: 4598-4605). Cells were maintained at about 1×10^6 cells/ml under standard incubator conditions (humidified atmosphere, 95% air, 5% CO2, at 37° C.). HL60 cells were induced to differentiate into the granulocyte phenotype by adding dimethylsulfoxide (DMSO) (final concentration 1.25%, v/v) for 4 days to the culture medium, as described previously (Itoh et al. Blood. 1998. 92: 1432-1441).
# For the initial screening of the PS-SPCLs, we measured the AA release stimulating activity of each peptide pool. Cultured dHL60 cells (10^7 cells/ml) were pre-labeled with 0.5 μCi/ml of (^3H)-AA in RPMI 1640 medium containing 10% FBS for 90 min at 37° C. in a humidified incubator supplied with 95% air and 5% CO2, as described previously (Bae et al. J. Immunol. 2000. 164: 4089-4096). The labeled cells were then washed twice with serum-free RPMI 1640 and incubated in RPMI 1640 medium containing 0.1% fatty acid-free BSA for 15 min at 37° C. After discarding the medium, the cells were stimulated with various concentrations of peptide for the indicated times. Radioactivity in the medium and of collected cells was determined with a liquid scintillation counter. When investigating the effects of inhibitors, cells were preincubated with the indicated concentrations of each inhibitor or vehicle for 15 min prior to stimulation.
# [2] = tested on: differentiated HL60 cells; experiment: [Ca2+]i increase in fura-2 loaded dHL60 cells; assay type: cell-based, human; conditions: for [Ca^2+]i: differentiated HL60 cells, fura-2, 1 μM of peptide; for Concentration of maximal activity, [Ca^2+]i increase: data not shown
# Experimental: as §1
# (§2) The level of [Ca^2+]i was determined using Grynkiewicz's method using fura-2/AM (Grynkiewicz et al. J. Biol. Chem. 1985. 260: 3440-3550). Briefly, prepared cells were incubated with 3 μM of fura-2/AM at 37° C. for 50 min in serum-free RPMI 1640 medium under continuous stirring. 2×10^6 cells were aliquoted for each assay in Ca^2+ free Locke's solution (154 mM NaCl, 5.6 mM KCl, 1.2 mM MgCl2, 5 mM HEPES, pH 7.3, 10 mM glucose, and 0.2 mM EGTA). Fluorescence changes were measured at the dual excitation wavelength of 340 nm and 380 nm, and the calculated fluorescence ratio was translated into [Ca^2+]i.
# [3] = tested on: undifferentiated HL60 cells; experiment: [Ca2+]i increase in undifferentiated HL60 cells; assay type: cell-based, human; conditions: peptides 10 μM (FIG. 8)
# Experimental: as §1, §2
# human neutrophils = experiment: Superoxide generation (cytochrome c reduction) in human neutrophils; assay type: cell-based
# Experimental: Peripheral blood leukocyte concentrates were donated by the Ulsan Red Cross Blood Center (Ulsan, Korea). PBMCs were separated on a Histopaque-1077 gradient. After two washings with HBSS without Ca^2+ and Mg^2+, the PBMCs were suspended in 10% FBS containing RPMI and incubated for 60 min at 37° C. to let the monocytes attach to the culture dish. Cells were washed 5 times with warmed RPMI medium to remove lymphocytes, and then the attached monocytes were collected, as described previously (Bae et al. J. Leukoc. Biol. 1999. 65: 241-248). Human neutrophils were isolated according to standard procedures; i.e., dextran sedimentation, hypotonic lysis of erythrocytes, and using a medium lymphocyte separation gradient, as described previously (Seo et al. J. Immunol. 1997. 158: 1895-1901). Isolated human leukocytes were then used promptly.
# We determined superoxide anion generation by measuring cytochrome c reduction using a microtiter 96 well plate ELISA reader (Bio-Tekinstruments, EL312e, Winooski, Vt.) as described previously (Bae et al. Blood. 2001. 97: 2854-2862). Human neutrophils (1×10^6 cells/100 μl of RPMI 1640 medium per well of a 96-well plate) were preincubated with 50 μM of cytochrome c at 37° C. for 1 min and then incubated with the indicated peptide concentrations. Superoxide generation was determined from change in light absorption at 550 nm over 5 minutes at 1 min intervals.
# human monocytes = experiment: Chemotaxis assay (modified Boyden chamber), monocytes; assay type: cell-based; conditions: FIG. 6B; control peptide at concentrations less than 10 μM
# Experimental: FIGS. 6A and 6B show chemotactic effect of peptides. Assays were performed using a modified Boyden chamber assay, as described in the Examples. Isolated human neutrophils (A) or monocytes (B) (1×10^6 cells/ml in serum free RPMI) were added to the upper wells of a 96-well chemotaxis chamber and migration across a 3 μm pore size (5 μm for monocytes) polycarbonate membrane was assessed after 2 hrs incubation at 37° C. The numbers of migrated cells were determined by counting them in a high power field (400×). Results are presented as means±S.E. of three independent experiments each performed in duplicate.
# Chemotaxis assays were performed using multiwell chambers (Neuroprobe Inc., Gaithersburg, Md.) (Bae et al. Blood. 2001. 97: 2854-2862). Briefly, prepared human monocytes were suspended in RPMI at a concentration of 1×10^6 cells/ml, and 25 μl of the suspension was then placed onto the upper well of a chamber separated by a 5 μm polyhydrocarbon filter (3 μm pores size not polyvinylpyrrolidone coated, as is needed for neutrophils) from peptides or N-formyl-methionyl-leucyl-phenylalanine (fMLF) in the lower well. After incubation for 2 hours (90 minutes for neutrophils) at 37° C., non-migrated cells were removed by scraping, and cells that migrated across the filter were dehydrated, fixed, and stained with hematoxylin (Sigma, St. Louis, Mo.). Stained cells were counted in five randomly chosen high power fields (HPF) (400×) (Bae et al. Blood. 2001. 97: 2854-2862).
Compound,[Ca^2+]i [2],"Folds of increase (% of total), arachidonic acid release [1]",AA release stimulating activity (in words) [1],also measured
"CCCCC/C=C\C/C=C\C/C=C\C/C=C\CCCC(=O)C(F)(F)F [AACOCF3, reference compound]",,,,"Inhibition of AA release induced by P14, P18, P21, P24 [1]: almost completely prevented"
"Nc1ncnc2c1ncn2[C@@H]1O[C@H](COP(=O)(O)OP(=O)(O)OP(=O)(O)O)[C@@H](O)[C@H]1O [ATP, reference compound]",,,,"[Ca^2+]i increase (in words) ([2]; dHL60 cells, 500 μM of ATP (FIG. 4)): stimulated; Effect of PTX on agonist-induced [Ca^2+]i rise ([2]; dHL60 cells, PTX 150 ng/ml for 20 hr): not inhibited"
"CC(=O)OCOC(=O)CN(CC(=O)OCOC(C)=O)c1ccccc1OCCOc1ccccc1N(CC(=O)OCOC(C)=O)CC(=O)OCOC(C)=O [BAPTA/AM, reference compound]",,,,"Inhibition of AA release induced by P14, P18, P21, P24 [1]: inhibited"
"O=C1O/C(=C/Br)CCC1c1cccc2ccccc12 (stereo not shown) [BEL, reference compound]",,,,"Inhibition of AA release induced by P14, P18, P21, P24 [1]: did not interfere"
"CSCC[C@H](NC=O)C(=O)N[C@@H](CC(C)C)C(=O)N[C@@H](Cc1ccccc1)C(=O)O [fMLF, N-formyl-methionyl-leucyl-phenylalanine, reference compound]",,,,"[Ca^2+]i increase in undifferentiated HL60 cells [3]: did not affect; Superoxide production (human neutrophils; 1 μM of peptide, cytochrome c reduction): 26.5 ± 1.32 nmole/10^6 cells"
"CCCCC[C@H](O)/C=C/C=C\C=C\C=C\[C@@H](O)[C@@H](O)CCCC(=O)O [lipoxin A4, reference compound]",,,,[Ca^2+]i increase in undifferentiated HL60 cells [3]: did not affect
KKHHKM-NH2 [Peptide P1],0 nM,1.25 ± 0.168 folds,,"[Ca^2+]i increase (in words) ([2]; dHL60 cells, 1 μM): did not affect"
KKHHVM-NH2 [Peptide P2],0 nM,1.23 ± 0.153 folds,,
KKHYKM-NH2 [Peptide P3],8 ± 3.2 nM,1.45 ± 0.306 folds,,
KKHYPM-NH2 [Peptide P4],14 ± 4.1 nM,1.41 ± 0.247 folds,,
KKHYVM-NH2 [Peptide P5],34 ± 9.5 nM,1.68 ± 0.390 folds,,
KKHYYM-NH2 [Peptide P6],50 ± 11.7 nM,1.52 ± 0.296 folds,,
KKYHKM-NH2 [Peptide P7],0 nM,1.42 ± 0.226 folds,,"[Ca^2+]i increase (in words) ([2]; dHL60 cells, 1 μM): did not affect"
KKYHVM-NH2 [Peptide P8],31 ± 3.5 nM,1.30 ± 0.170 folds,,
KKYYKM-NH2 [Peptide P9],85 ± 15.8 nM,1.49 ± 0.268 folds,,
KKYYPM-NH2 [Peptide P10],152 ± 28.7 nM,2.27 ± 0.199 folds,most potent,"Concentration of maximal activity, [Ca^2+]i increase ([2]; dHL60 cells): approximately 3 μM"
KKYYVM-NH2 [Peptide P11],158 ± 25.3 nM,2.49 ± 0.023 folds,most potent,"Concentration of maximal activity, [Ca^2+]i increase ([2]; dHL60 cells): approximately 3 μM"
KKYYYM-NH2 [Peptide P12],153 ± 13.2 nM,2.58 ± 0.168 folds,most potent,"Concentration of maximal activity, [Ca^2+]i increase ([2]; dHL60 cells): approximately 3 μM"
MKYHKM-NH2 [Peptide P19],13 ± 3.0 nM,1.68 ± 0.221 folds,,
MKYHVM-NH2 [Peptide P20],155 ± 16.3 nM,2.55 ± 0.271 folds,most potent,
MKYYPM-NH2 [Peptide P22],168 ± 21.6 nM,2.95 ± 0.668 folds,most potent,"Concentration of maximal activity, [Ca^2+]i increase ([2]; dHL60 cells): approximately 3 μM"
MKYYVM-NH2 [Peptide P23],153 ± 13.2 nM,3.05 ± 0.401 folds,most potent,"Concentration of maximal activity, [Ca^2+]i increase ([2]; dHL60 cells): approximately 3 μM"
RKYHKM-NH2 [Peptide P13],10 ± 4.2 nM,1.47 ± 0.220 folds,,
RKYYKM-NH2 [Peptide P15],77 ± 12.1 nM,1.71 ± 0.214 folds,,
RKYYPM-NH2 [Peptide P16],135 ± 21.4 nM,2.57 ± 0.450 folds,most potent,"Concentration of maximal activity, [Ca^2+]i increase ([2]; dHL60 cells): approximately 3 μM"
RKYYVM-NH2 [Peptide P17],143 ± 10.2 nM,2.82 ± 0.210 folds,most potent,"Concentration of maximal activity, [Ca^2+]i increase ([2]; dHL60 cells): approximately 3 μM; Cellular chemotaxis in human monocytes (in words) (human monocytes): induced cellular chemotaxis; Superoxide generation (in words) (human neutrophils): stimulate superoxide generation in a concentration-dependent manner"
